Measurements taken from patent US20240065983A1, “COMPOSITION AND METHOD FOR TREATING COVID-19” (University of South Florida, priority 2021, published 2024).

Experiments:
[1] = tested on: icSARS-CoV-2nMG; type: cell-based, SARS-CoV-2
[2] = tested on: mouse coronavirus MHV-A59-GFP; assay: microbe, parasite or virus in culture; conditions: read-out: inhibition of infection
[3] = tested on: mouse coronavirus (MHV), K18 hACE2 transgenic mouse, and mouse adapted coronavirus (MA10) infection models
[4] = tested on: human coronavirus NL63; assay: Gene expression (qPCR) in NL63 infected Calu3 cells; type: cell-based; conditions: NL63 0.1 MOI, LG 20 uM, 48 hrs PI
Experimental: (§1) FIG. 2A-B are a series of graphs depicting broad spectrum anti-viral and anti-inflammatory activity of LG. Histograms showing mRNA expression assessed by qPCR. A) Effect of LG on poly I:C (P I:C) stimulated Calu 3 cells with or without LG treatment, B) Anti-inflammatory effect of LG treatment in NL63 infected Calu 3 cells. Cells were collected 48 hrs of post infection (PI) with NL63 virus (0.1 MOI) (C, Control) and treated with LG (20 uM) (T, Treatment), n=3, Data expressed as mean±SEM, * Compared to NL63, *p<0.05, **p<0.005, ***p<0.0005.
(§2) To examine whether LG has broad spectrum antiviral activity, Calu3 cells are stimulated with 10 ug/ml poly IC for 24 h, treated with 20 uM LG for 48 h, and then RNA was isolated for gene expression analyses. […] Further the inventors examined the effect of LG on the Calu3 lung cells infected with human coronavirus NL63.

[5] = tested on: poly I:C stimulated Calu 3 cells; assay: Gene expression (qPCR) in poly I:C stimulated Calu3 cells; type: cell-based; conditions: 10 ug/ml poly IC 24 h, 20 uM LG 48 h
Experimental: as §1, §2

[6] = tested on: Delta strain; assay: Plaque assay, Delta strain; type: cell-based, SARS-CoV-2
[7] = tested on: mouse coronavirus MHV-A59-GFP
[8] = tested on: WA strain; assay: Plaque assay, WA strain; type: cell-based, SARS-CoV-2
[9] = molecular target: T1, RBD-ACE2 interaction (Severe acute respiratory syndrome coronavirus 2, UniProt P0DTC2); type: binding; conditions: compared to the negative control
T1 construct: purchased Genscript

[10] = tested on: icSARS-CoV-2nMG (CoV2-GFP); type: cell-based, SARS-CoV-2

| SMILES | viral infection as seen by N gene expression [1] | inhibition at 20 µM [2] [%] | efficacy in in vivo studies [3] [%] | expression of anti-inflammatory genes at transcript level [4] | expression of IL-6, IL1β, IFNγ, TNFα, NFkB, NLRP3 [5] | expression of IL-10 and PPARγ [5] | reduction in plaque titers [6] [log] | cell killing (bright field images) ([7]; 20 uM LG, DBT cells) | inhibition of coronavirus infection (dose dependence) ([7]; DBT cells, GFP) | reduction in infection versus Remdesvir ([7]; LG 20 uM vs Remdesvir 10 nM) | N transcript ([7]; LG 20 uM, compared to vehicle control) | reduction in plaque titers [8] [log] | interference of RBD-ACE2 interaction [9] | CoV2 infection [10] | infected GFP-positive cells ([10]; LG 20 uM, WA strain, Caco2) |
| --- | --- | --- | --- | --- | --- | --- | --- | --- | --- | --- | --- | --- | --- | --- | --- |
| CCCCC/C=C\C/C=C\CCCCCCCC(=O)O [LLA, linoleic acid] | significantly decreased viral infection |  |  |  |  |  |  |  |  |  |  |  |  |  |  |
| CC(O)c1ccc(CCOc2ccc(CC3SC(=O)NC3=O)cc2)nc1 (stereo not drawn) [LG, leriglitazone] |  | > 70 | > 70 | altered expression of anti-inflammatory genes at the transcript level similar to that found in poly-IC experiment | inhibits expression | increases expression | > 2 | without killing the cells | inhibited coronavirus infection in a dose-dependent fashion | significantly higher reduction in infection | significant reduction in N transcript | > 2 | significantly inhibited the RBD-ACE2 interaction in a dose-dependent manner | dose-dependent decrease of CoV2 infection | significant reduction in infected GFP-positive cells |
